{"source": "patent US12624031B2", "about": "“Inhibitors of ubiquitin specific peptidase 22 (USP22) and uses thereof for treating diseases and disorders” (Northwestern University, priority 2022, dated 2026)", "key": {"Foxp3 in iTreg cells": {"tested_on": "Foxp3 in iTreg cells", "experiment": "in vitro dose response study in WT and Usp22-null iTreg cells", "assay_type": "cell-based, murine", "procedure": "(§1) FIG. 6: Usp22i-S02 halts Usp22-mediated Foxp3 deubiqutination. A, Graphical representation of Foxp3 MFI change in WT versus 22KO iTreg cells treated with various doses of Usp22i-S02 (n=3). B, Representative histogram of Foxp3 MFI level in iTreg cells as Usp22 inhibitor concentration increases from 0-20 μg/mL. C, Cell survival of iTreg cells treated with various doses of Usp22i-S02 (n=3). D, FOXP3 and USP22 protein level in WT and 22KO mice treated with 10 μg/mL Usp22i-S02. E-F, Graphical and representative data of Foxp3 MFI of human Treg cells treated with various doses of Usp22i-S02 (n=3). G, Graphical representation of Foxp3 MFI in WT, Usp21-null, and Usp22-null Treg cells treated with Usp22i-S02 at 10 μg/mL (n=3). H, FOXP3 and USP22 protein degradation of cycloheximide (10 μg/mL) treated iTreg cells with or without the addition of 10 μg/mL of Usp22i-S02. I-J, Endogenous DUB assay IP in iTreg cells of USP22 with FOXP3 under increasing concentrations of Usp22i-S02. K, Foxp3 mRNA level in iTreg cells as Usp22 inhibitor concentration increases from 0-20 μg/mL (n=3). L, FOXP3 and USP22 level in WT iTreg cells with or without 20 μg/mL Usp22 inhibitor treated with 20 μM MG132. M, Graphical representation of the percentage of decrease of Foxp3 MFI in either WT or Usp22-null nTreg cells placed in low glucose conditions with or without the addition of 10 μg/mL of Usp22i-S02 (n=7-8). N, Graphical representation of the percentage of decrease of Foxp3 MFI in WT nTreg cells placed in hypoxic or low amino acid conditions with or without the addition of 10 μg/mL of Usp22i-S02 (n=3-5). G, Two-tailed unpaired t-test comparing within groups was performed to determine statistical significance. K, One-way ANOVA with Dunnet's multiple comparisons between rows relative to control was performed to determine statistical significance. M-N, Two-way ANOVA with Sidak's multiple comparisons between rows was performed to determine statistical significance. All data are presented as mean±stdev. NS, not significant. *P<0.05, **P<0.01, ***P<0.001, ****P<0.0001.\nAfter initial screening, we ran an in vitro dose response study on compound S02, dubbed Usp22i-S02, in both WT and Usp22-null iTreg cells (FIG. 6A-C)."}, "[1]": {"tested_on": "polarized CD4+ T-regulatory cells", "experiment": "cytotoxicity in polarized CD4+ T-regulatory cells", "assay_type": "cell-based, murine", "conditions": "156 ng/mL to 5 ug/mL, compared to DMSO controls", "procedure": "FIG. 2: Cytotoxicity of compounds from 156 ng/mL to 5 ug/mL concentration range in polarized CD4+ T-regulatory cells. Murine CD4+ T-cells were isolated and polarized in vitro to T-regulatory cells using 5 ng/mL IL-2, 2 μg/mL anti-IL-4, 2 μg/mL anti-IFNγ, and 1 ng/mL TGFβ. After 48 hours, the inhibitors were added to the cells.\nWe then synthesized all 17 compounds and validated their cytotoxicity to regulatory T cells. To this end, mouse CD4 T cells were polarized to FoxP3 Tregs for two days, followed by treatment of the cells with each of the compounds at the doses upto 5 ug/ml. […] In addition, the rest of the compounds had poor solubility in DMSO, and were not further tested."}, "[2]": {"tested_on": "FoxP3 expression in CD4+ natural T-regulatory cells", "experiment": "FoxP3 expression in natural T-regulatory cells by flow cytometry", "assay_type": "cell-based, murine", "conditions": "concentration of 1-2 ug", "procedure": "FIGS. 3 and 4: Change in FoxP3 expression in murine CD4+ natural T-regulatory cells. Murine lymphocytes were isolated from the spleens and lymph nodes and cultured with varying concentrations of inhibitor (0.25 μg/mL to 2 μg/mL) or DMSO, anti-CD3, anti-CD28, TGFβ, and IL-2. After two days, lymphocytes were analyzed by flow cytometry for FoxP3 expression in natural T-regulatory (nTregs) gated on CD3+CD4+CD25+FoxP3+. (FIG. 3) Representative histograms of FITC::FoxP3 MFI in nTregs cultured with inhibitors at a concentration of 2 μg/mL. (FIG. 4) Representative plot of FITC::FoxP3 geometric MFI in nTregs across different concentrations of inhibitor.\nWe then analyzed whether treatment of Tregs with the compounds S106, 107 and 110 inhibits USP22 activity in Tregs as measured by FoxP3 expression levels by flow cytometry."}, "[3]": {"tested_on": "Foxp3 in human Treg cells", "experiment": "Foxp3 MFI of human Treg cells", "assay_type": "cell-based", "conditions": "low doses", "procedure": "as §1, with “N, Graphical representation of the percentage of decrease of Foxp3 MFI in WT nTreg cells placed in hypoxic or low amino acid conditions with or without the addition of 10 μg/mL of Usp22i-S02 (n=3-5). G, Two-tailed unpaired t-test comparing within groups was performed to determine statistical significance. K, One-way ANOVA with Dunnet's multiple comparisons between rows relative to control was performed to determine statistical significance. M-N, Two-way ANOVA with Sidak's multiple comparisons between rows was performed to determine statistical significance. All data are presented as mean±stdev. NS, not significant. *P<0.05, **P<0.01, ***P<0.001, ****P<0.0001.” left out"}, "LLC1 cells": {"tested_on": "LLC1 cells", "experiment": "LLC1 cell counts, viability and growth in vitro", "assay_type": "cell-based", "conditions": "24 hours various concentrations; 10 ug/ml for 7 days", "procedure": "FIG. 8: Usp22i-S02 inhibits tumor growth in vitro and in vivo. A, In vitro counts of LLC1 after treatment with Usp22i-S02 under various concentrations for 24 hours (n=2). B, In vitro viability of LLC1 after treatment with Usp22i-S02 under various concentrations for 24 hours (n=2). C, In vitro relative growth of LLC1 cells treated with 10 ug/ml of Usp22i-S02 relative to DMSO treated control for 7 days via OD600 (n=4). D, Growth curve of 1 million subcutaneously injected LLC1 cells into RAG−/− mice treated for 3 days Usp22i-S02 relative to DMSO control injections at day 15 of tumor growth (n=4). C-D, Two-way ANOVA with Sidaks's multiple comparisons between rows relative to control was performed to determine statistical significance. All data are presented as mean±stdev. NS, not significant. *P<0.05, **P<0.01, ***P<0.001, ****P<0.0001.\nAs Usp22 is also an important oncogene, we were interested in the potential dual-therapeutic function of Usp22i-S02."}}}
{"smiles": "N#Cc1c2c(c(Nc3ccccc3)n3c1nc1ccccc13)CCCC2", "note": "[USP22i-S02, 11-anilino-7,8,9,10-tetrahydrobenzimidazo[1,2-b]isoquinoline-6-carbonitrile]", "values": [{"measurement": "viability of iTreg cells", "setting": "Foxp3 in iTreg cells; 10 μg/mL", "value": "little effect on viability"}, {"measurement": "FOXP3 degradation with MG132", "setting": "Foxp3 in iTreg cells; 20 μg/mL inhibitor, 20 μM MG132", "value": "halted by MG132 protease inhibition"}, {"measurement": "FOXP3 degradation in cycloheximide treated iTreg cells", "setting": "Foxp3 in iTreg cells; CHX 10 μg/mL, 10 μg/mL inhibitor", "value": "enhanced FOXP3 degradation"}, {"measurement": "effect on iTreg cells lacking Usp21", "setting": "Foxp3 in iTreg cells; Usp21-null, 10 μg/mL", "value": "full effect"}, {"measurement": "FOXP3 levels in murine Treg cells lacking Usp22", "setting": "Foxp3 in iTreg cells; Usp22-null, in vivo and in vitro", "value": "minimal effect on FOXP3 levels"}, {"measurement": "Foxp3 under glucose starvation in Treg cells lacking Usp22", "setting": "Foxp3 in iTreg cells; Usp22-null, low glucose, 10 μg/mL", "value": "no effect on Foxp3"}, {"measurement": "Foxp3 stability under glucose starvation", "setting": "Foxp3 in iTreg cells; WT Treg cells, low glucose, 10 μg/mL", "value": "significantly diminished Foxp3 stability"}, {"measurement": "Foxp3 MFI and protein level", "setting": "Foxp3 in iTreg cells; WT iTreg cells, 10 μg/mL", "value": "decreases in Foxp3 MFI and protein level comparable to Usp22-null iTreg cells"}, {"measurement": "Foxp3 stability under hypoxic and amino acid starvation conditions", "setting": "Foxp3 in iTreg cells; WT nTreg cells, 10 μg/mL", "value": "reduces Foxp3 stability"}, {"measurement": "Foxp3 transcription", "setting": "Foxp3 in iTreg cells; iTreg cells, 0-20 μg/mL", "value": "decreased Foxp3 transcription"}, {"measurement": "FOXP3 ubiquitination", "setting": "Foxp3 in iTreg cells; iTreg cells, endogenous DUB assay IP", "value": "increased FOXP3 ubiquitination"}, {"measurement": "cytotoxicity to Tregs", "setting": "[1]", "value": "does not show severe cytotoxicity"}, {"measurement": "FoxP3 expression levels in Tregs", "setting": "[2]", "value": "did not reduce the levels of FoxP3"}, {"measurement": "Foxp3 MFI in human Treg cells", "setting": "[3]", "value": "significantly decreased Foxp3 MFI"}, {"measurement": "viability of human Treg cells", "setting": "[3]", "value": "little effect to cell viability"}, {"measurement": "LLC1 tumor cell counts, viability and growth in vitro", "setting": "LLC1 cells", "value": "decreased tumor cell counts, viability, and growth"}]}
